These results are taken from US20260191818A1 (University of South Carolina, priority 2022, published 2026).

Data set [1] deals with succinate dehydrogenase (SDH) activity. Put plainly: Myofiber metabolic phenotype, succinate dehydrogenase (SDH) staining of TA cryosections. The class given is in vivo, CD2F1 mice. Conditions: C26+5FU+Quer vs C26+5FU. On the procedure: To assess skeletal muscle myofiber metabolic phenotype succinate dehydrogenase (SDH) activity was measured. SDH is an enzyme bound to the inner mitochondrial membrane and SDH activity is higher in type 1 fibers. See, Zogby, A. M., et al., Skeletal muscle fiber-type specific succinate dehydrogenase activity in cerebral palsy. Muscle Nerve, 2017. 55(1): p. 122-124. TA tissue cryosections were taken out of the -80° C. and air dried on the laboratory bench and then incubated in an SDH staining solution containing 0.5 mg/ml nitroblue tetrazolium and (Sigma, Cat #: N5514) and 50 mM sodium succinate (Sigma, Cat #: S2378) in PBS for 30 min at 37° C. See, […]., et al., Eccentric contraction-induced myofiber growth in tumor-bearing mice. J Appl Physiol (1985), 2016. 120(1): p. 29-37. Slides were then washed in distilled water 3×1 min before mounting with warmed glycerol mounting media and cover slipped. Images of SDH stains were taken at 4×, 20×, and 40× using a Keyence BZX800 microscope. […] Images were inverted thus higher values corresponded with higher SDH activity.

Data set [2] deals with soleus muscle mitochondria. Put plainly: Transmission electron microscopy of soleus muscle, mitochondrial number and size. The class given is in vivo, CD2F1 mice. Conditions: C26+5FU+Quer vs C26+5FU. On the procedure: Mitochondrial number and size were assessed in the soleus muscle using transmission electron microscopy (TEM). Skeletal muscle was prepared for TEM as previously described. See, VanderVeen, B. N., et al., 5-Fluorouracil disrupts skeletal muscle immune cells and impairs skeletal muscle repair and remodeling. J Appl Physiol (1985), 2022. 133(4): p. 834-849. The soleus was excised and initially fixed in 2.5% EM-grade glutaraldehyde followed by a secondary fixation in 1% osmium tetroxide and 1.5% K+ ferricyanide. After dehydration with increasing concentrations of ethanol, the samples were transferred to acetonitrile and embedded in Polybed 812. Ultrathin (~70 nm) sections were cut with a Leica Reichert Ultracut R ultramicrotome (Leica Microsystems GmbH, Wetzlar, Germany), collected on copper grids and stained with uranyl acetate and lead citrate. A JEOL 1400+ transmission electron microscope (JEOL USA, Peabody, MA) was used to view sections, and digital images were obtained with an Advanced Microscopy Techniques XR 81 Camera (Advanced Microscopy Techniques, Woburn, MA). Tissues were searched for intact and aligned sarcomeres by an investigator blinded to the experimental groups. […] Mitochondrial size was calculated by circling discernible mitochondria with ImageJ within the F.O.V. and averaged across the multiple images within a single mouse.

In another data set the test system is IL-6. Put plainly: Plasma interleukin-6 ELISA. The class given is in vivo, CD2F1 mice. Conditions: C26+5FU+Quer vs C26+5FU. The method, then:
Blood was collected retro orbitally prior to euthanasia while the mice were anesthetized. Whole blood was collected and put in an EDTA-coated tubes and store on ice prior to centrifugation (3,000 g at 4° C. for 10 min) for plasma collection. A commercially available IL-6 (SEQ ID NO: 9) enzyme-linked immunosorbent assay (ELISA) kit was obtained from BioLegend (San Diego, CA, USA). Briefly, a Costar clear 96-well plate (Corning, NY, USA) was coated with IL-6 (SEQ ID NO: 9) capture antibody and allowed to incubate overnight. The plate was then blocked with assay diluent buffer, and IL-6 (SEQ ID NO: 9) standards and plasma samples were added to the plate. Wells were then washed and detection antibody was incubated in each well for 1 h. The wells were again washed and then incubated with avidin horseradish peroxidase reagent. After several washes, 3,3′,5,5′-tetramethylbenzidine substrate was added, and the reaction was developed for 20 min. The reaction was stopped with sulfuric acid, and absorbance was measured.

For data set [3], the system named is STAT3, P65/NFκβ, P38/MAPK. Put plainly: Western blot of rectus femoris, inflammatory signaling proteins. The class given is in vivo, CD2F1 mice. As to conditions: C26+5FU+Quer vs C26+5FU. On the procedure: Protein isolation and western blotting was completed similar to what has been previously described. See, Sougiannis, A. T., et al., Impact of weight loss and partial weight regain on immune cell and inflammatory markers in adipose tissue in male mice. J Appl Physiol (1985), 2020. 129(4): p. 909-919. The rectus femoris (RF) was teased from the other quadriceps muscles, cut in half (proximal/distal), snap frozen in liquid nitrogen, and stored at −80° C. The distal RF was homogenized in Mueller Buffer (50 mM Hepes, 0.1% Triton-x, 4 mM EGTA, 10 mM EDTA, 15 mM Na4P207, 100 mM β-glycerophosphate, 25 mM NaF, and 5 mM NaVO4, with protease inhibitor cocktail) using a bead homogenizer at 4° C. Samples were centrifuged and the supernatant was collected and diluted with a diluent buffer (50% Glycerol, 50 mM Na4P2O7, 2.5 mM EGTA, and 1 mM β-mercaptoethanol with protease inhibitor cocktail). Protein concentrations were determined using the Bradford standard protein assay and protein integrity was confirmed with SDS-PAGE and amido black staining. Between 10-50 μg of muscle protein homogenate was separated via SDS-PAGE and transferred to a PVDF membrane. Membranes were stained with Ponceau Red to confirm even loading and transfer efficiency. Membranes were then washed with tris buffered saline with 0.1% Tween (TBST) before blocking for 1 h at room temp with 5% milk TBST. Membranes were then incubated in primary anti-body (Table 1, see FIG. 8) overnight at 4° C. under gentle agitation. Membranes were then washed 3×5 min and incubated with the appropriate (anti-mouse or rabbit) HRP-linked secondary in 5% milk TBST for 1 h at room temperature. After a final 3×5 min wash membranes were incubated in chemiluminescent HRP substrate before visualization with a Syngene G:box. Images were then scanned, and relative protein expression was determined with ImageJ. Investigator was blinded to sample loading scheme and images were cropped after analysis for representation. All samples (full Ns) were run together for each protein. Dotted lines indicate where gels were cropped.
On the technique in general: Immunoblotting shows a protein as a band on a membrane.

The test system of a further data set is CD2F1 mice. Conditions: mouse, in vivo; cited from earlier work.

Consider `O=c1c(O)c(-c2ccc(O)c(O)c2)oc2cc(O)cc(O)c12` [quercetin, 3,4,5,7-pentahydroxylflavone], for which, in data set [1], the “CSA across glycolytic, mixed, and oxidative fibers according to SDH activity” value is “increase”; the “mCSA and SDH across the spectrum of fibers analyzed” value is given as “increased”. Also, in data set [2] (soleus TEM per F.O.V., p=0.04), the “greater number of mitochondria” value stood at 89.6%. The compound also had a greater mitochondrial size in data set [2] (soleus TEM, p>0.01 as printed) of 45.3%. For the same compound, the “plasma IL-6” value with IL-6 is “did not appear that quercetin decreased”. The “change in p/tP65” value in data set [3] (increased, p=0.03) is on record as 41.9%. Further, the “change in phospho:total P38” value in data set [3] (p=0.19) is recorded as −30.0%. Besides, in data set [3] (p=0.36), the “change in phospho:total (p/t) STAT3” value is 33.2%. The sub-chronic toxicity result with CD2F1 mice is “no deleterious effects or toxicities”.
